Reference: patent US8168648B2, “Camptothecin derivatives and uses thereof” (Taiwan Liposome Co., Ltd., priority 2009, dated 2012)

Tests used:
Type in all cases: cell-based
[1] = test system: DMS-114; assay: In vitro cytotoxicity assay (SRB), DMS-114; details: Homo sapiens, DMS-114 (Small cell lung cancer), 72 hours of incubation
[2] = test system: HCT-116; assay: In vitro cytotoxicity assay (SRB), HCT-116; details: HCT-116 (Human colon cancer), 72 hours of incubation
[3] = test system: MCF-7; assay: In vitro cytotoxicity assay (SRB), MCF-7; details: MCF7, MCF-7 (Human breast cancer), 72 hours of incubation
[4] = test system: HT-29; assay: In vitro cytotoxicity assay (SRB), HT-29; details: HT-29 (Human colon cancer), 72 hours of incubation
[5] = test system: PC14PE6/AS2; assay: In vitro cytotoxicity assay (SRB), PC14PE6/AS2; details: PC14PE6/AS2 (Non-small cell lung cancer), 72 hours of incubation

SMILES | IC50 [1] [nM] | IC50 [2] [nM] | IC50 [3] [nM] | IC50 [4] [nM] | IC50 [5] [nM]
CC[C@@]1(OC(=O)[C@@H](C)O)C(=O)OCc2c1cc1n(c2=O)Cc2cc3c(CN(C)C)c(O)ccc3nc2-1 [S,R-topotecan lactate (U1), S,R-topotecan lactate] | 53 | 58 | 194 | 56 | 21
CC[C@@]1(OC(=O)[C@H](C)O)C(=O)OCc2c1cc1n(c2=O)Cc2cc3c(CN(C)C)c(O)ccc3nc2-1 [S,S-topotecan lactate (U2), S,S-topotecan lactate] | 26 | 45 | 143 | 56 | 74
